Source: patent US10940141B1, “Methods for the administration of certain VMAT2 inhibitors” (Neurocrine Biosciences, Inc., priority 2019, dated 2021)
One block for each molecule: values may come before it.

Assays:
[1] = Phase 1, open-label, single-dose PK study of valbenazine in subjects with normal renal function or severe renal impairment; format: in vivo, human; conditions: for effect of severe renal impairment on AUC0-∞ / effect of severe renal impairment on Cmax: single dose valbenazine 40 mg (free base equivalent as ditosylate), fasted, severe renal impairment compared to normal renal function; for effect of renal status on protein binding: severe renal impairment vs normal renal function
Description: (§1) This was a Phase 1, open-label, single-dose, PK study of valbenazine to assess the safety and PK of valbenazine and its metabolites in subjects with normal renal function or severe renal impairment. A total of 16 subjects (8 with severe renal impairment and 8 with normal renal function) received a single dose of valbenazine 40 mg (free base equivalent as the ditosylate salt) under fasted conditions.

[2] = cited from earlier work
[3] = Safety and tolerability in the Phase 1 single-dose study (TEAEs, laboratory tests, vital signs, ECG); format: in vivo, human
Description: as §1

[4] = valbenazine 40 mg single dose, all 16 subjects

- effect of severe renal impairment on AUC0-∞ [1]: no clinically meaningful effect
- effect of severe renal impairment on Cmax [1]: no clinically meaningful effect
- effect of renal status on protein binding ([1]; single dose valbenazine 40 mg): little effect
Compound: COc1cc2c(cc1OC)[C@H]1C[C@@H](O)[C@H](CC(C)C)CN1CC2 [NBI-98782, (2R, 3R,11bR)-3-isobutyl-9,10-dimethoxy-1,3,4,6,7,11b-hexahydro-2H-pyrido[2,1-a]isoquinolin-2-ol]

- effect of severe renal impairment on AUC0-∞ [1]: no clinically meaningful effect
- effect of severe renal impairment on Cmax [1]: no clinically meaningful effect
Compound: COc1cc2c(cc1OC)[C@H]1C[C@@H](OC(=O)[C@@H](N)C(C)(C)O)[C@H](CC(C)C)CN1CC2 [NBI-136110]

Compound: COc1cc2c(cc1OC)[C@H]1C[C@@H](OC(=O)[C@@H](N)C(C)C)[C@H](CC(C)C)CN1CC2 [Valbenazine ditosylate, L-Valine, (2R,3R,11bR)-1,3,4,6,7,11b-hexahydro-9,10-dimethoxy-3-(2-methylpropyl)-2H-benzo[a]quinolizin-2-yl ester, 4-methylbenzenesulfonate (1:2)]
- solubility in water [2]: slightly soluble

Compound: COc1cc2c(cc1OC)[C@H]1C[C@@H](OC(=O)[C@@H](N)C(C)C)[C@H](CC(C)C)CN1CC2 [valbenazine, (S)-2-amino-3-methyl-butyric acid (2R, 3R,11bR)-3-isobutyl-9,10-dimethoxy-1,3,4,6,7,11b-hexahydro-2H-pyrido[2,1-a]isoquinolin-2-yl ester]
- urine clearance in subjects with severe renal impairment compared with normal renal function ([1]; single dose valbenazine 40 mg): reduction
- effect of severe renal impairment on AUC0-∞ [1]: no clinically meaningful effect
- effect of severe renal impairment on Cmax [1]: no clinically meaningful effect
- effect of renal status on protein binding ([1]; single dose valbenazine 40 mg): little effect
- treatment-related TEAE headache ([3]; normal renal function group): 1 subject
- treatment-related TEAE somnolence ([3]; normal renal function group): 1 subject
- treatment-related TEAE somnolence ([3]; severe renal impairment group): 1 subject
- treatment-related TEAE vision blurred ([3]; severe renal impairment group): 1 subject
- subjects with QTcF increase from baseline >60 msec ([3]; valbenazine 40 mg single dose): No subject
- subjects with QTcF interval >480 msec ([3]; valbenazine 40 mg single dose): No subject
- subjects who experienced TEAEs, each of the renal function groups ([3]; valbenazine 40 mg single dose, 8 subjects per group (normal renal function; severe renal impairment)): 2 (25.0%) subjects
- tolerability ([3]; valbenazine 40 mg single dose, 16 subjects (8 normal renal function, 8 severe renal impairment)): well tolerated
- deaths, serious or severe TEAEs, or discontinuations due to a TEAE [3, 4]: no deaths, serious or severe TEAEs, or discontinuations due to a TEAE
- subjects who experienced TEAEs, overall [3, 4]: 4 (25.0%) subjects
- treatment-related TEAEs reported [3, 4]: 3 subjects
- changes in clinical laboratory tests, vital sign measurements, weight, or ECG parameters ([3]; valbenazine 40 mg single dose, during the study): no clinically significant changes
